Test [1] deals with MV4-11 xenograft tumors. The test is described as follows: In vivo anti-proliferative assay, mouse xenograft model of MLL-rearranged leukemia. To be noted: 21 days. Here is the method:
In Vivo Anti-Proliferative Assay. The in vivo anti-tumor activity of the compounds of the present invention were assessed in a mouse xenograft model of MLL-rearranged leukemia. Four groups of 20 (Groups 1, 3, 4 and 5), and one group of 8 (Group 2) female nude mice (average weight of 0.023 kg) bearing MV4-11 xenograft tumors of sizes ranging from 80-120 mm^3 were implanted subcutaneously with minipumps (Alzet Model 2001). Group 1 received vehicle only from the pump. Group 2 received vehicle only from the pump plus ip injections tid (8 hours apart) of vehicle. […] Pumps were designed to last for 7 days and were exchanged twice to give total infusion duration of 21 days exposure. […] Blood samples were taken from Group 3 on days 7 and 14 at the following time points (3 animals per time point): 5 minutes pre-ip dose, and 15 min, 30 min, 1, 2, and 4 hours post ip dose. On day 21 three hours after the last ip injection, a single blood sample was taken from Group 3. Tumor size was measured every 4 days. After 21 days the study was terminated, and mean TGI calculated.

For test [2], the system named is MV4;11 (MLL-AF4) cells. The test is described as follows: In vitro anti-proliferative assay, MV4;11. In kind it is cell-based, human. To be noted: up to 14 days. Here is the method: (§1) In Vitro Anti-Proliferative Assay. The potency and selectivity of the anti-proliferative activity of the compounds of the present invention were assessed using a panel of MLL-rearranged and non-MLL-rearranged human leukemia cell lines. The MLL-rearranged panel included cell lines derived from ALL, AML and biphenotypic leukemias harboring MLL-AF4, MLL-AF9 or MLL-ENL fusions. These cell lines recruit DOT1L.
(§2) Exponentially growing cells were plated, in triplicate, in 96-well plates at a density of 3×10^4 cells/well in a final volume of 150 μl. […] Anti-proliferative activity was determined by cell viability measurements every 3-4 days for up to 14 days.

In test [3] the test system is KOPN-8 (MLL-ENL) cells. Kind of test: In vitro anti-proliferative assay, KOPN-8. Type of test: cell-based, human. The conditions noted are these: up to 14 days. Here is the method: as §1, §2
Test [4] has as its system MOLM-13 (MLL-AF9) cells. Kind of test: In vitro anti-proliferative assay, MOLM-13. The conditions noted are these: up to 14 days. In kind it is cell-based, human. Here is the method: as §1, §2
Test [5] relates to Jurkat cells (non-MLL-rearranged). Kind of test: In vitro anti-proliferative assay, Jurkat. In kind it is cell-based, human. To be noted: up to 14 days. Here is the method:
as §1, §2

Test [6] has as its system EOL-1 cells (MLL-PTD). Kind of test: In vitro anti-proliferative assay, EOL-1. To be noted: Homo sapiens, EOL1, 336 h; EOL-1 (MLL-PTD), up to 14 days. Type of test: cell-based. Here is the method:
as §1, §2

Test [7] deals with HL-60 cells (non-MLL-rearranged). Kind of test: In vitro anti-proliferative assay, HL-60. Type of test: cell-based, human. To be noted: HL-60, up to 14 days. Here is the method:
as §1, §2

pIC50: −log10 of the molar value. Bounds are passed on as bounds.

For the molecule `CC(C)N(C[C@H]1O[C@@H](n2cnc3c(N)ncnc32)[C@H](O)[C@@H]1O)[C@H]1C[C@@H](CCc2nc3cc(C(C)(C)C)ccc3[nH]2)C1` [Compound 2, (2R,3R,4S,5R)-2-(6-amino-9H-purin-9-yl)-5-((((1r,3S)-3-(2-(5-(tert-butyl)-1H-benzo[d]imidazol-2-yl)ethyl)cyclobutyl)(isopropyl)amino)methyl)tetrahydrofuran-3,4-diol], the “TGI compared to controls” value in test [1] (56 mg/kg/day minipump, non-statistically significant) was 43%; in test [1] (112 mg/kg/day minipump, non-statistically significant), 38%; in test [1] (Group 3: 112 mg/kg/day minipump plus ip 20 mg/kg tid (172 mg/kg/day), statistically significant) it was > 70%. Moreover, the “anti-proliferative activity (IC50)” value in test [2], in test [3] and in test [4] was “potent nanomolar anti-proliferative activity” each time. Besides, the anti-proliferative activity entry in test [5] and in test [7] was “no activity” throughout. The molecule further showed a pIC50 in test [6] of 7.96.

For the origin of these results see patent publication US11633420B2, “Method of treating leukemia” (Epizyme, Inc., priority 2012, dated 2023).
